The results in this text go back to paper PMC9476189 (ACS Omega, 2022).

Experiment [1] has as its target α-glucosidase (Saccharomyces cerevisiae, UniProt P53341). The experiment in a line: α-Glucosidase assay. In kind it is biochemical. The settings on record: for α-glucosidase inhibition, inhibition (%) at 0.5 mM / IC50: mean ± SEM, triplicate; for IC50: read-out: α-glucosidase inhibition, IC50.
Experiment [2] addresses BChE (Homo sapiens, UniProt P06276). The settings on record: mean ± SEM, triplicate; for IC50: read-out: BChE inhibition, IC50.
The target of experiment [3] is urease (Canavalia ensiformis, UniProt P07374). The settings on record: mean ± SEM, triplicate; for IC50: read-out: urease inhibition, IC50.
Experiment [4] has as its target AChE (Homo sapiens, UniProt P22303). The settings on record: for AChE inhibition, inhibition (%) at 0.5 mM / IC50: mean ± SEM, triplicate; for IC50: read-out: AChE inhibition, IC50.
Experiment [5] concerns the target T1, LOX (Glycine max, UniProt P08170).
T1 sequence (P08170 1-839): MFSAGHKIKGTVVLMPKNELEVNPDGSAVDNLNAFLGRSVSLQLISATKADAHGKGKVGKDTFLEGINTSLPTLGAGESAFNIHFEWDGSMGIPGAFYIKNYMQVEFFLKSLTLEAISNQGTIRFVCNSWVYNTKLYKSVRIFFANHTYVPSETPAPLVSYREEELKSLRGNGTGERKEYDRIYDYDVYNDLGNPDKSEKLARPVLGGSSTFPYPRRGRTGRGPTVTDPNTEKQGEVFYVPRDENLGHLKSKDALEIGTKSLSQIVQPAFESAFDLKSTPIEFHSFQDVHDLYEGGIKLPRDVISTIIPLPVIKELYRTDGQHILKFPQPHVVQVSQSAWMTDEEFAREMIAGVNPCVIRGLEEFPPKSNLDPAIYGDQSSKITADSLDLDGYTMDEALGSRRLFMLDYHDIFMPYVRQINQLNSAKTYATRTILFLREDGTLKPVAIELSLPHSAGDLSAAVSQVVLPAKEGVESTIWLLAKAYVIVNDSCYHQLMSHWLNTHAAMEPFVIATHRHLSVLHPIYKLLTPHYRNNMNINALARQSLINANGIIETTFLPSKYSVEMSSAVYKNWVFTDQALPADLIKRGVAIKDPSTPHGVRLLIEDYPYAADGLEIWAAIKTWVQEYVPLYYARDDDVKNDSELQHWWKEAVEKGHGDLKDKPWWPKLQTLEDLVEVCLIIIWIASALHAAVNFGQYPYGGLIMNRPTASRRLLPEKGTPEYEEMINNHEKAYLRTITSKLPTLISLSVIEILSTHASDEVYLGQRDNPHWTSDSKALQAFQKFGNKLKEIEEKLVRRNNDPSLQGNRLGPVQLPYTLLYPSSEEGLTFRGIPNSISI
Kind of experiment: Lipoxygenase assay. In kind it is biochemical. The settings on record: mean ± SEM, triplicate; for IC50: read-out: LOX inhibition, IC50.

Sequence of BChE (P06276 29-602, species assumed): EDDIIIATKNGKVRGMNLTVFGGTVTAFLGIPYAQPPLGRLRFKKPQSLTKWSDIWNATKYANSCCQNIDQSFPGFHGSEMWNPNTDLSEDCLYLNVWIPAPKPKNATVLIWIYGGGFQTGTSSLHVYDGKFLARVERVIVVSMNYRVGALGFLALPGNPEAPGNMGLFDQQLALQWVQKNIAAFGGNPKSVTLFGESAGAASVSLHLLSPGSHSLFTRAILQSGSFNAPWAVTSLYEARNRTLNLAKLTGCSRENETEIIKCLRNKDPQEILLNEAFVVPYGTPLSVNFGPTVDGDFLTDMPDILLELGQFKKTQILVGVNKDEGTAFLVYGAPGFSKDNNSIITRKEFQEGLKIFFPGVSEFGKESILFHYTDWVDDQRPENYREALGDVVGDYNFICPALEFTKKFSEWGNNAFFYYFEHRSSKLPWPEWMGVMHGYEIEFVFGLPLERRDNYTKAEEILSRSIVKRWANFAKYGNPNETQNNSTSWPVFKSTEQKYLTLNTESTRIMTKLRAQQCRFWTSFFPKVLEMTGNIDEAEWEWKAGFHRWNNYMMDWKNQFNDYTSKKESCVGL
Sequence of urease (P07374 whole entry, looked up): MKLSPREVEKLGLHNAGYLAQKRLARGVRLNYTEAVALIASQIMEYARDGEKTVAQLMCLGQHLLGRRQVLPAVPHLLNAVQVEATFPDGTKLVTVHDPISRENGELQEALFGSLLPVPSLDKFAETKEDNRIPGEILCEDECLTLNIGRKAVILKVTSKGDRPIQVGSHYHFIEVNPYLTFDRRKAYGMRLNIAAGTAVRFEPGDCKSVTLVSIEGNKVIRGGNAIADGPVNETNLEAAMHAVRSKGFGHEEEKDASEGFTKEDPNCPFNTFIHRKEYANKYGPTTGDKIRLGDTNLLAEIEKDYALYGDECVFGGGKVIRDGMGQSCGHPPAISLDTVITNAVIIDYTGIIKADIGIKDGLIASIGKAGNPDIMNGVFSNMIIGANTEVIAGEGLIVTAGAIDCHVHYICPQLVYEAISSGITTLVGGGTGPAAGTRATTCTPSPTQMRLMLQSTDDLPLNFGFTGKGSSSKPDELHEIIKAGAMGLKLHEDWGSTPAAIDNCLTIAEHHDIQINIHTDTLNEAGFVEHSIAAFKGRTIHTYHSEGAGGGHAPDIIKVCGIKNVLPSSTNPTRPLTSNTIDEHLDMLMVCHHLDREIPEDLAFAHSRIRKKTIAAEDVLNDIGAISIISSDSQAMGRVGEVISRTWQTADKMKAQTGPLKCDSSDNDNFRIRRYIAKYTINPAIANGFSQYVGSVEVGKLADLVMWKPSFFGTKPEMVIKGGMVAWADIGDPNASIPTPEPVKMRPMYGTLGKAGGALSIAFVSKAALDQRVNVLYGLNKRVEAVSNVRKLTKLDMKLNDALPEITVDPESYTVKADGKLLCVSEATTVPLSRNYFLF
Sequence of AChE (P22303 32-614): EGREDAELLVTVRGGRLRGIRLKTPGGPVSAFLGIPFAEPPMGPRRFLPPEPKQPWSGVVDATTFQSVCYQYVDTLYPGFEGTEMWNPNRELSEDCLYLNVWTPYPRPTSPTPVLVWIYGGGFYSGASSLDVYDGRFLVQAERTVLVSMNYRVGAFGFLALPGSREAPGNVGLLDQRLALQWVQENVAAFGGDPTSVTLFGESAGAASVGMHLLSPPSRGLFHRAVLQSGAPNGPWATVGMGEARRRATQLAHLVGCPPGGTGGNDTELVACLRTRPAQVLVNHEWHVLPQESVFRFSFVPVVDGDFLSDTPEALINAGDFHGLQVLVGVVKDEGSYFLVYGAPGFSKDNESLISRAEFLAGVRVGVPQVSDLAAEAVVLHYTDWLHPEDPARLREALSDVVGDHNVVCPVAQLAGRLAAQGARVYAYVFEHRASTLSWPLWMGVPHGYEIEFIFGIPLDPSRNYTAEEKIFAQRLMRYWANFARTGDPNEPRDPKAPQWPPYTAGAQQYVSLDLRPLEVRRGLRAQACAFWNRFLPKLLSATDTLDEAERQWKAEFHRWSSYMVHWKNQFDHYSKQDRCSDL
Sequence of α-glucosidase (P53341 whole entry): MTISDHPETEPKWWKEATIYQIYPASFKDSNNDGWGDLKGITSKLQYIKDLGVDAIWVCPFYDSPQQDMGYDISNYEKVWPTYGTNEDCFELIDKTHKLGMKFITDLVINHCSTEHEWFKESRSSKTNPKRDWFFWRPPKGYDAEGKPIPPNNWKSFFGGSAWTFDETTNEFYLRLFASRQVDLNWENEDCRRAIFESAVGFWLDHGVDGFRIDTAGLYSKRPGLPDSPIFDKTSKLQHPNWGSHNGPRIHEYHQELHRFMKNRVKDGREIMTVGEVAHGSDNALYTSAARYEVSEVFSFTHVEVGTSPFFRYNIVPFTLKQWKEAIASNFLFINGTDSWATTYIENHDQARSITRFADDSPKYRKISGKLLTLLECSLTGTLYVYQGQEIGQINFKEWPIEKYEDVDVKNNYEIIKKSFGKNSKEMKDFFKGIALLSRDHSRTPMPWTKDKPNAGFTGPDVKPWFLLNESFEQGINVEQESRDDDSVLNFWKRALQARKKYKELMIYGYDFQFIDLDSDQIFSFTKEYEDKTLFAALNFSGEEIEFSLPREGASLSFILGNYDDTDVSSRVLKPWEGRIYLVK

Take `Cc1ccc(S(=O)(=O)N2CCC(c3nnc(SCC(=O)NC4CCCCC4)n3C)CC2)cc1` [Compound 12a, 1-(4-toluenesulfonyl)-4-[3-(N-cyclohexyl-2-ethanamoylthio)-4-methyl-4H-1,2,4-triazol-5-yl] piperidine]: in experiment [1], the “α-glucosidase inhibition, inhibition (%) at 0.5 mM” value is 87.25 ± 1.65% and the 50% inhibitory concentration (IC50) (commonly the midpoint of a concentration-inhibition curve) worked out at 135 ± 1.39 µM. In addition, the “BChE inhibition, inhibition (%) at 0.5 mM” value in experiment [2] was 21.93 ± 0.62%. Besides, the “urease inhibition, inhibition (%) at 0.25 mM” value in experiment [3] was found to be 25.34 ± 1.42%. Further, in experiment [4], the “AChE inhibition, inhibition (%) at 0.5 mM” value was determined as 52.37 ± 0.78% and the IC50 turned out to be 476.3 ± 0.57 µM. The “LOX inhibition, inhibition (%) at 0.25 mM” value in experiment [5] is 39.47 ± 0.82%.
Regarding `Cc1ccc(S(=O)(=O)N2CCC(c3nnc(SCC(=O)Nc4ccccc4)n3C)CC2)cc1` [Compound 12b, 1-(4-toluenesulfonyl)-4-[3-(N-phenyl-2-ethanamoylthio)-4-methyl-4H-1,2,4-triazol-5-yl] piperidine], in experiment [1], the “α-glucosidase inhibition, inhibition (%) at 0.5 mM” value came to 76.23 ± 1.58% and the IC50 turned out to be 264.3 ± 1.24 µM. For the same compound, in experiment [2], the “BChE inhibition, inhibition (%) at 0.5 mM” value was determined as 63.42 ± 0.75% and the IC50 worked out at 279.4 ± 0.59 µM. The “urease inhibition, inhibition (%) at 0.25 mM” value in experiment [3] came to 31.23 ± 1.42%. Moreover, in experiment [4], the “activity against AChE enzyme (in words)” value was “excellent activity”; the “AChE inhibition, inhibition (%) at 0.5 mM” value was determined as 89.15 ± 0.68%; the IC50 was determined as 85.46 ± 0.45 µM. Moreover, in experiment [5], the “LOX inhibition, inhibition (%) at 0.25 mM” value came out at 35.25 ± 0.42%.
Regarding `Cc1ccc(S(=O)(=O)N2CCC(c3nnc(SCC(=O)Nc4ccccc4C)n3C)CC2)cc1` [Compound 12c, 1-(4-toluenesulfonyl)-4-{3-[N-(2-methylphenyl)-2-ethanamoylthio]-4-methyl-4H-1,2,4-triazol-5-yl} piperidine], in experiment [1], the “α-glucosidase inhibition, inhibition (%) at 0.5 mM” value is on record as 72.45 ± 1.75% and the IC50 is 327.8 ± 1.57 µM. In experiment [2], the “BChE inhibition, inhibition (%) at 0.5 mM” value is recorded as 37.83 ± 0.42%. In experiment [3], the “urease inhibition, inhibition (%) at 0.25 mM” value is reported as 75.45 ± 1.72% and the IC50 came to 163.8 ± 1.45 µM. In experiment [4], the “AChE inhibition, inhibition (%) at 0.5 mM” value came to 82.36 ± 0.67% and the IC50 is 134.6 ± 0.53 µM. The “LOX inhibition, inhibition (%) at 0.25 mM” value in experiment [5] turned out to be 36.47 ± 0.76%.
With `Cc1ccc(S(=O)(=O)N2CCC(c3nnc(SCC(=O)Nc4cccc(C)c4)n3C)CC2)cc1` [Compound 12d, 1-(4-Toluenesulfonyl)-4-{3-[N-(3-methylphenyl)-2-ethanamoylthio]-4-methyl-4H-1,2,4-triazol-5-yl}{Kumari, 2021 #63} piperidine], in experiment [1], the “activity against α-glucosidase enzyme (in words)” value is “excellent activity”; the “α-glucosidase inhibition, inhibition (%) at 0.5 mM” value is on record as 91.52 ± 1.43%; the IC50 stood at 36.7 ± 1.24 µM. For the same compound, in experiment [2], the “BChE inhibition, inhibition (%) at 0.5 mM” value is 95.29 ± 0.74%. Besides, in experiment [3], the “urease inhibition, inhibition (%) at 0.25 mM” value was 98.22 ± 1.65% and the IC50 was 19.4 ± 1.28 µM. Further, in experiment [4], the “activity against AChE enzyme (in words)” value was “excellent activity”; the “AChE inhibition, inhibition (%) at 0.5 mM” value is listed as 98.78 ± 0.78%; the IC50 was found to be 0.73 ± 0.54 µM. In addition, in experiment [5], the “LOX inhibition, inhibition (%) at 0.25 mM” value was determined as 68.34 ± 0.82% and the IC50 was 32.6 ± 0.42 µM.
Take `Cc1ccc(NC(=O)CSc2nnc(C3CCN(S(=O)(=O)c4ccc(C)cc4)CC3)n2C)cc1` [Compound 12e, 1-(4-toluenesulfonyl)-4-{3-[N-(4-methylphenyl)-2-ethanamoylthio]-4-methyl-4H-1,2,4-triazol-5-yl} piperidine]: in experiment [1], the “α-glucosidase inhibition, inhibition (%) at 0.5 mM” value amounted to 72.75 ± 1.58% and the 50% inhibitory concentration (IC50) was 314.6 ± 1.24 µM. In addition, in experiment [2], the “BChE inhibition, inhibition (%) at 0.5 mM” value is 96.47 ± 0.76% and the IC50 amounted to 0.053 µM. Further, in experiment [3], the “urease inhibition, inhibition (%) at 0.25 mM” value was 39.26 ± 1.43%. Besides, in experiment [4], the “activity against AChE enzyme (in words)” value was “excellent activity”; the “AChE inhibition, inhibition (%) at 0.5 mM” value came out at 87.43 ± 0.77%; the IC50 worked out at 97.86 ± 0.65 µM. Moreover, the “LOX inhibition, inhibition (%) at 0.25 mM” value in experiment [5] was determined as 48.36 ± 0.43%.
As for `CCc1ccccc1NC(=O)CSc1nnc(C2CCN(S(=O)(=O)c3ccc(C)cc3)CC2)n1C` [Compound 12f, 1-(4-toluenesulfonyl)-4-{3-[N-(2-ethylphenyl)-2-ethanamoylthio]-4-methyl-4H-1,2,4-triazol-5-yl} piperidine], in experiment [1], the “α-glucosidase inhibition, inhibition (%) at 0.5 mM” value was found to be 74.95 ± 1.74% and the IC50 was 275.8 ± 1.37 µM. Moreover, the “BChE inhibition, inhibition (%) at 0.5 mM” value in experiment [2] turned out to be 39.78 ± 0.57%. Further, the “urease inhibition, inhibition (%) at 0.25 mM” value in experiment [3] was found to be 36.35 ± 1.78%. Also, the “AChE inhibition, inhibition (%) at 0.5 mM” value in experiment [4] stood at 39.62 ± 0.55%. In experiment [5], the “LOX inhibition, inhibition (%) at 0.25 mM” value is given as 62.38 ± 0.75% and the IC50 was found to be 96.32 ± 0.37 µM.
On to `COc1ccccc1NC(=O)CSc1nnc(C2CCN(S(=O)(=O)c3ccc(C)cc3)CC2)n1C` [Compound 12g, 1-(4-toluenesulfonyl)-4-{3-[N-(2-methoxyphenyl)-2-ethanamoylthio]-4-methyl-4H-1,2,4-triazol-5-yl} piperidine], for which, in experiment [1], the “α-glucosidase inhibition, inhibition (%) at 0.5 mM” value worked out at 71.45 ± 1.73% and the IC50 stood at 267.4 ± 1.52 µM. The “BChE inhibition, inhibition (%) at 0.5 mM” value in experiment [2] came out at 24.72 ± 0.56%. The “urease inhibition, inhibition (%) at 0.25 mM” value in experiment [3] is 42.87 ± 1.51%. Further, in experiment [4], the “AChE inhibition, inhibition (%) at 0.5 mM” value was 79.24 ± 0.89% and the IC50 worked out at 149.8 ± 0.67 µM. Also, the “LOX inhibition, inhibition (%) at 0.25 mM” value in experiment [5] turned out to be 41.55 ± 0.51%.
For the compound `CCOc1ccc(NC(=O)CSc2nnc(C3CCN(S(=O)(=O)c4ccc(C)cc4)CC3)n2C)cc1` [Compound 12h, 1-(4-toluenesulfonyl)-4-{3-[N-(4-ethoxyphenyl)-2-ethanamoylthio]-4-methyl-4H-1,2,4-triazol-5-yl} piperidine], in experiment [1], the “α-glucosidase inhibition, inhibition (%) at 0.5 mM” value was found to be 73.12 ± 1.58% and the IC50 stood at 286.6 ± 1.25 µM. Further, in experiment [2], the “BChE inhibition, inhibition (%) at 0.5 mM” value turned out to be 16.51 ± 0.35%. Besides, the “urease inhibition, inhibition (%) at 0.25 mM” value in experiment [3] is on record as 42.63 ± 1.52%. For the same compound, the “AChE inhibition, inhibition (%) at 0.5 mM” value in experiment [4] amounted to 37.41 ± 0.62%. Besides, in experiment [5], the “LOX inhibition, inhibition (%) at 0.25 mM” value was found to be 63.53 ± 0.52% and the 50% inhibitory concentration (IC50) was 92.45 ± 0.26 µM.
Consider `Cc1ccc(S(=O)(=O)N2CCC(c3nnc(SCC(=O)Nc4cccc(C)c4C)n3C)CC2)cc1` [Compound 12i, 1-(4-toluenesulfonyl)-4-{3-[N-(2,3-dimethylphenyl)-2-ethanamoylthio]-4-methyl-4H-1,2,4-triazol-5-yl} piperidine], for which the “α-glucosidase inhibition, inhibition (%) at 0.5 mM” value in experiment [1] is reported as 31.53 ± 1.37%. Besides, the “BChE inhibition, inhibition (%) at 0.5 mM” value in experiment [2] was determined as 36.47 ± 0.75%. Further, in experiment [3], the “urease inhibition, inhibition (%) at 0.25 mM” value came to 75.82 ± 1.79% and the IC50 came out at 143 ± 1.52 µM. In experiment [4], the “AChE inhibition, inhibition (%) at 0.5 mM” value is 82.51 ± 0.85% and the IC50 is 117.4 ± 0.64 µM. Besides, the “LOX inhibition, inhibition (%) at 0.25 mM” value in experiment [5] was found to be 24.12 ± 0.59%.
As to `Cc1ccc(S(=O)(=O)N2CCC(c3nnc(SCC(=O)Nc4ccc(C)cc4C)n3C)CC2)cc1` [Compound 12j, 1-(4-toluenesulfonyl)-4-{3-[N-(2,4-dimethylphenyl)-2-ethanamoylthio]-4-methyl-4H-1,2,4-triazol-5-yl} piperidine], in experiment [1], the “α-glucosidase inhibition, inhibition (%) at 0.5 mM” value was 72.25 ± 1.85% and the IC50 came out at 365.9 ± 1.42 µM. Moreover, in experiment [2], the “BChE inhibition, inhibition (%) at 0.5 mM” value is 37.62 ± 0.87%. Moreover, in experiment [3], the “urease inhibition, inhibition (%) at 0.25 mM” value is on record as 73.52 ± 1.65% and the IC50 stood at 167.2 ± 1.34 µM. In addition, in experiment [4], the “activity against AChE enzyme (in words)” value is “excellent activity”; the “AChE inhibition, inhibition (%) at 0.5 mM” value is 88.36 ± 0.79%; the IC50 turned out to be 94.63 ± 0.57 µM. The “LOX inhibition, inhibition (%) at 0.25 mM” value in experiment [5] worked out at 23.54 ± 0.85%.
Turning to `Cc1ccc(S(=O)(=O)N2CCC(c3nnc(SCC(=O)Nc4cc(C)ccc4C)n3C)CC2)cc1` [Compound 12k, 1-(4-toluenesulfonyl)-4-{3-[N-(2,5-dimethylphenyl)-2-ethanamoylthio]-4-methyl-4H-1,2,4-triazol-5-yl} piperidine], in experiment [1], the “α-glucosidase inhibition, inhibition (%) at 0.5 mM” value stood at 71.16 ± 1.64% and the IC50 was 385.6 ± 1.32 µM. In experiment [2], the “BChE inhibition, inhibition (%) at 0.5 mM” value was 49.23 ± 0.94%. Besides, in experiment [3], the “urease inhibition, inhibition (%) at 0.25 mM” value is 76.15 ± 1.52% and the IC50 turned out to be 165.4 ± 1.27 µM. In experiment [4], the “AChE inhibition, inhibition (%) at 0.5 mM” value is 65.27 ± 0.74% and the IC50 is 212.9 ± 0.59 µM. The “LOX inhibition, inhibition (%) at 0.25 mM” value in experiment [5] worked out at 29.45 ± 0.72%.
